# Source: US20230074545A1, “TREATMENT OF CANCER WITH CDK12/13 INHIBITORS” (Kinnate Biopharma Inc., priority 2019, published 2023)
# Key:
# Assay in all cases: Radiometric kinase panel
# Assay type in all cases: biochemical
# IGF1R = target: T1, IGF1R (Homo sapiens, UniProt P08069)
# T1 construct: either as full-length or enzymatically active fragments; purchased ProQinase GmbH (Reaction Biology); host or cells: Sf9 insect cells or E. coli
# Method in brief: (§1)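 Activity was measured radiometrically from [gamma-33P]-ATP incorporation into substrate. The kinases were recombinant human GST- or His-tagged proteins, full-length or active fragments, expressed in Sf9 or E. coli. Compound in 10% DMSO was added before the enzyme/substrate mix, which started the reaction.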
# EIF2AK3 = target: T2, EIF2AK3 (Homo sapiens, UniProt Q9NZJ5)
# T2 construct: either as full-length or enzymatically active fragments; purchased ProQinase GmbH (Reaction Biology); host or cells: Sf9 insect cells or E. coli
# T2 sequence (Q9NZJ5 30-1116): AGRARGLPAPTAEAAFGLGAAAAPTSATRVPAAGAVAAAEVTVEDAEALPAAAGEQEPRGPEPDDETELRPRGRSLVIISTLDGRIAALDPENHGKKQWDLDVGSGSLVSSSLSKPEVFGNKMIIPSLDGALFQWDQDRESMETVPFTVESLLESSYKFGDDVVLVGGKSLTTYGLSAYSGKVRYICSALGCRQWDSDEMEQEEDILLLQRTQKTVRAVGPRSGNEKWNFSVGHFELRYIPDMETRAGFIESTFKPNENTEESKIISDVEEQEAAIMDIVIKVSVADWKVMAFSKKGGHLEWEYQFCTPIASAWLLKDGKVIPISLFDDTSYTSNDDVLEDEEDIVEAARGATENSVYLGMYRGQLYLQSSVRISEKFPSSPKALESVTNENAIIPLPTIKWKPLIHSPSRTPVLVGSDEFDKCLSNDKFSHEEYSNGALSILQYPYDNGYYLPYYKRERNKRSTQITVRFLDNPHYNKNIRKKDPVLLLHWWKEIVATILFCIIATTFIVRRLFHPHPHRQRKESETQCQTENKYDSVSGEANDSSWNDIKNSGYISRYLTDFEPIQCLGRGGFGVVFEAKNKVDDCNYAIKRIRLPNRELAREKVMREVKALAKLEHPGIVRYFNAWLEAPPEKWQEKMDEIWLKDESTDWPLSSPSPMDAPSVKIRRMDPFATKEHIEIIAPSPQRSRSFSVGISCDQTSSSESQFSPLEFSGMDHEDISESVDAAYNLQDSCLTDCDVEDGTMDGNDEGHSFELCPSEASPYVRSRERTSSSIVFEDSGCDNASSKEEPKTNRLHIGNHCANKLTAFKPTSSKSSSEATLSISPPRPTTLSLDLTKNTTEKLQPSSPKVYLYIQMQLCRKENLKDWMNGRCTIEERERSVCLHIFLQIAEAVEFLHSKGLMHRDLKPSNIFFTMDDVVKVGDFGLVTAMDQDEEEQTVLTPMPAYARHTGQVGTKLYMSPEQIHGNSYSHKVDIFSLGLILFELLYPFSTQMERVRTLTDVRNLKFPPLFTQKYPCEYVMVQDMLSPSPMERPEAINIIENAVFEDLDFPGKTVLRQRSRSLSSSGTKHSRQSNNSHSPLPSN
# Method in brief: as §1
# ABL1 = target: T3, ABL1 (Homo sapiens, UniProt P00519)
# T3 construct: purchased ProQinase GmbH (Reaction Biology)
# Method in brief: as §1
# DCAMKL2 = target: T4, DCAMKL2 (Homo sapiens, UniProt Q8N568)
# T4 construct: purchased ProQinase GmbH (Reaction Biology); host or cells: Sf9 insect cells or E. coli (not specified per kinase)
# T4 sequence (Q8N568 whole entry): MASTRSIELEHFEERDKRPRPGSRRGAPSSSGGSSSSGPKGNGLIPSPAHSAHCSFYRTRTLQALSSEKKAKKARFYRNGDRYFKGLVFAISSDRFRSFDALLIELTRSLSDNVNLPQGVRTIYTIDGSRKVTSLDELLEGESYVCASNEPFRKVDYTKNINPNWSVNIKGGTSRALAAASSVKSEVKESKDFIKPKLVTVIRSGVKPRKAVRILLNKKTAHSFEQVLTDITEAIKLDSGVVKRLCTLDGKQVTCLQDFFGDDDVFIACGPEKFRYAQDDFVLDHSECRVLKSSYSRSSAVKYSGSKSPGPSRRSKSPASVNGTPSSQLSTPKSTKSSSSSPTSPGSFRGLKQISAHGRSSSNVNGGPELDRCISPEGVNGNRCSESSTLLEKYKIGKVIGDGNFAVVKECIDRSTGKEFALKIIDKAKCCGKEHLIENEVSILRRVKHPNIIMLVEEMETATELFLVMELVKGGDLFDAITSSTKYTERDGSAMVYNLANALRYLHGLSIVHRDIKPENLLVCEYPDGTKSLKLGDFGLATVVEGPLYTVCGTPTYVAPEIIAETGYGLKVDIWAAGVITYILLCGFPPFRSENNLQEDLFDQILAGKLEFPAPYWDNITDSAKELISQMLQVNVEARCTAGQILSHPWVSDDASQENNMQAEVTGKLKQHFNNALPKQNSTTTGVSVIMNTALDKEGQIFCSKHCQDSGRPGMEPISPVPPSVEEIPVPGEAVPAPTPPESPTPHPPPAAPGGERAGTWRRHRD
# Method in brief: as §1
# MYLK3 = target: T5, MYLK3 (Homo sapiens, UniProt Q32MK0)
# T5 construct: either as full-length or enzymatically active fragments; purchased ProQinase GmbH (Reaction Biology)
# T5 sequence (Q32MK0 whole entry, the tested form may be a part): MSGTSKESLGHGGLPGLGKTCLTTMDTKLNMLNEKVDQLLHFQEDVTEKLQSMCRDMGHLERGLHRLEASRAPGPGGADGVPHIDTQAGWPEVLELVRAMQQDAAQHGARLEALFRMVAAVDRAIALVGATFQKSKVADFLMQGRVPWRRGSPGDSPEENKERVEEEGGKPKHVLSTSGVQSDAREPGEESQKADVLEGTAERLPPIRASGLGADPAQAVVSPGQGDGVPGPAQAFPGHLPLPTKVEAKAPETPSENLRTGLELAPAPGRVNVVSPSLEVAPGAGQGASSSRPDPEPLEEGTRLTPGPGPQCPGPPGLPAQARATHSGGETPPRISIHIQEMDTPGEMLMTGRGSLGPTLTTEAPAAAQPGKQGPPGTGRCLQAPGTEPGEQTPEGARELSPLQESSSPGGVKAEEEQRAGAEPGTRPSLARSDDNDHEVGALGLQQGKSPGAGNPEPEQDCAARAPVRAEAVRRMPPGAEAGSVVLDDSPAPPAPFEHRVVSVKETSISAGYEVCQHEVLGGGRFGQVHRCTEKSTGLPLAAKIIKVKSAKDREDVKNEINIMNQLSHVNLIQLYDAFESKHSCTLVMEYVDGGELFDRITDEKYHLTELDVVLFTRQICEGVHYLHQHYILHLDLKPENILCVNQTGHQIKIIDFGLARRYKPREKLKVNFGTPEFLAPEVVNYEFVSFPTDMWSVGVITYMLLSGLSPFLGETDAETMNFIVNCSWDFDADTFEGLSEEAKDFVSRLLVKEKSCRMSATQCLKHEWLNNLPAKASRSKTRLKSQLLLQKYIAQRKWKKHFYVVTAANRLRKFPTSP
# Method in brief: as §1
# EEF2K = target: T6, EEF2K (Homo sapiens, UniProt O00418)
# T6 construct: either as full-length or enzymatically active fragments; purchased ProQinase GmbH (Reaction Biology)
# Method in brief: as §1
# CDK2/CycA2 = target: T7, CDK2/CycA2 (Homo sapiens, UniProt P24941)
# T7 construct: either as full-length or enzymatically active fragments; purchased ProQinase GmbH (Reaction Biology); host or cells: Sf9 insect cells or E. coli
# Method in brief: as §1
# GRK5 = target: T8, GRK5 (Homo sapiens, UniProt P34947)
# T8 construct: either as full-length or enzymatically active fragments; purchased ProQinase GmbH (Reaction Biology)
# Method in brief: as §1
# ERK7 = target: T9, ERK7 (Homo sapiens, UniProt Q8TD08)
# T9 construct: either as full-length or enzymatically active fragments; purchased ProQinase GmbH (Reaction Biology)
# Method in brief: as §1
# WNK1 = target: T10, WNK1 (Homo sapiens, UniProt Q9H4A3)
# T10 construct: either as full-length or enzymatically active fragments; purchased ProQinase GmbH (Reaction Biology)
# Method in brief: as §1
# CK1delta = target: T11, CK1delta (Homo sapiens, UniProt P48730)
# T11 construct: either as full-length or enzymatically active fragments; purchased ProQinase GmbH (Reaction Biology)
# Method in brief: as §1
# PKCdelta = target: T12, PKCdelta (Homo sapiens, UniProt Q05655)
# T12 construct: purchased ProQinase GmbH (Reaction Biology)
# Method in brief: as §1
# FGFR1 = target: T13, FGFR1 (Homo sapiens, UniProt P11362)
# T13 construct: either as full-length or enzymatically active fragments; purchased ProQinase GmbH (Reaction Biology)
# Method in brief: as §1
# SIK3 = target: T14, SIK3 (Homo sapiens, UniProt Q9Y2K2)
# T14 construct: either as full-length or enzymatically active fragments; purchased ProQinase GmbH (Reaction Biology)
# Method in brief: as §1
# SRPK1 = target: T15, SRPK1 (Homo sapiens, UniProt Q96SB4)
# T15 construct: either as full-length or enzymatically active fragments; purchased ProQinase GmbH (Reaction Biology)
# Method in brief: as §1
# MAP4K4 = target: T16, MAP4K4 (Homo sapiens, UniProt O95819)
# T16 construct: purchased ProQinase GmbH (Reaction Biology)
# Method in brief: as §1
# PIM1 = target: T17, PIM1 (Homo sapiens, UniProt P11309)
# T17 construct: either as full-length or enzymatically active fragments; purchased ProQinase GmbH (Reaction Biology)
# Method in brief: as §1
# FRK = target: T18, FRK (Homo sapiens, UniProt P42685)
# T18 construct: either as full-length or enzymatically active fragments; purchased ProQinase GmbH (Reaction Biology)
# Method in brief: as §1
# FGFR4 = target: T19, FGFR4 (Homo sapiens, UniProt P22455)
# T19 construct: either as full-length or enzymatically active fragments; purchased ProQinase GmbH (Reaction Biology)
# T19 sequence (P22455 22-802): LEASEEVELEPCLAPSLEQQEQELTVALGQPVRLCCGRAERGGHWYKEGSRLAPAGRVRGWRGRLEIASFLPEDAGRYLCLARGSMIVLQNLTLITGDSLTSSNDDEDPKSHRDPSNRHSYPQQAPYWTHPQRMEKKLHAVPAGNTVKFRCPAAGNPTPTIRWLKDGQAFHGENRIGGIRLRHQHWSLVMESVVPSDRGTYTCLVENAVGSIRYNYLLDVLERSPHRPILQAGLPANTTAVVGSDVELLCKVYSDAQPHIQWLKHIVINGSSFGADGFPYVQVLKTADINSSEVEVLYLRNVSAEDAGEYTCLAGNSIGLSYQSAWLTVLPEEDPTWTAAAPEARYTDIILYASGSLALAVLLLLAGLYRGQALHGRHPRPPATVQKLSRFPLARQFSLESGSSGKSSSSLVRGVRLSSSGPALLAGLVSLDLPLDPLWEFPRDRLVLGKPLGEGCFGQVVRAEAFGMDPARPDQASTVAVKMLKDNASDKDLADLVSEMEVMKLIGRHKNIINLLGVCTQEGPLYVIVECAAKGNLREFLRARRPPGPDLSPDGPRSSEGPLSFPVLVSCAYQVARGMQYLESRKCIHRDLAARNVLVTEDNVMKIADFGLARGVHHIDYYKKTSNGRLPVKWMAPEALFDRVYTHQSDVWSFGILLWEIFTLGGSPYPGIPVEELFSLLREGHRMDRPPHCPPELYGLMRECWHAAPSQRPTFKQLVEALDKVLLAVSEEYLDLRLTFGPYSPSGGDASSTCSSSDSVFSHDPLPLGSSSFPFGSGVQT
# Method in brief: as §1
# CLK2 = target: T20, CLK2 (Homo sapiens, UniProt P49760)
# T20 construct: purchased ProQinase GmbH (Reaction Biology)
# Method in brief: as §1
# MST2 = target: T21, MST2 (Homo sapiens, UniProt Q13188)
# T21 construct: purchased ProQinase GmbH (Reaction Biology)
# Method in brief: as §1
# ACVR2A = target: T22, ACVR2A (Homo sapiens, UniProt P27037)
# T22 construct: either as full-length or enzymatically active fragments; purchased ProQinase GmbH (Reaction Biology)
# T22 sequence (P27037 20-513): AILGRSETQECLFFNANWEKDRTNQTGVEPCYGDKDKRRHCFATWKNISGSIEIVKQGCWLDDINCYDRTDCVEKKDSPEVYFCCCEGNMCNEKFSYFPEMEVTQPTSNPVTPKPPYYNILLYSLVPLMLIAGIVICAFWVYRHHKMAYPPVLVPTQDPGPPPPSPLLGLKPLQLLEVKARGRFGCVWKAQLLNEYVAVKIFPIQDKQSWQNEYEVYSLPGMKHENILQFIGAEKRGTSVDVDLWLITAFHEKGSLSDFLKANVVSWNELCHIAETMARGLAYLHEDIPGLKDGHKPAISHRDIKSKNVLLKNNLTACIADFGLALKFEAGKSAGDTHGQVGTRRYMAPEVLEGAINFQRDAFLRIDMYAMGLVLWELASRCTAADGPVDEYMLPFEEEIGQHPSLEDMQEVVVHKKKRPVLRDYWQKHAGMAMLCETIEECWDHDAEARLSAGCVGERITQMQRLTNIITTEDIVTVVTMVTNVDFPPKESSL
# Method in brief: as §1
# CK1epsilon = target: T23, CK1epsilon (Homo sapiens, UniProt P49674)
# T23 construct: either as full-length or enzymatically active fragments; purchased ProQinase GmbH (Reaction Biology)
# Method in brief: as §1
# GSK3beta = target: T24, GSK3beta (Homo sapiens, UniProt P49841)
# T24 construct: either as full-length or enzymatically active fragments; purchased ProQinase GmbH (Reaction Biology)
# Method in brief: as §1
# MAP3K1 = target: T25, MAP3K1 (Homo sapiens, UniProt Q13233)
# T25 construct: either as full-length or enzymatically active fragments; purchased ProQinase GmbH (Reaction Biology); host or cells: Sf9 insect cells or E. coli (not specified per kinase)
# Method in brief: as §1
# EGFR = target: T26, EGFR (Homo sapiens, UniProt P00533)
# T26 construct: either as full-length or enzymatically active fragments; purchased ProQinase GmbH (Reaction Biology)
# Method in brief: as §1
# PAK6 = target: T27, PAK6 (Homo sapiens, UniProt Q9NQU5)
# T27 construct: either as full-length or enzymatically active fragments; purchased ProQinase GmbH (Reaction Biology)
# T27 sequence (Q9NQU5 whole entry, the tested form may be a part): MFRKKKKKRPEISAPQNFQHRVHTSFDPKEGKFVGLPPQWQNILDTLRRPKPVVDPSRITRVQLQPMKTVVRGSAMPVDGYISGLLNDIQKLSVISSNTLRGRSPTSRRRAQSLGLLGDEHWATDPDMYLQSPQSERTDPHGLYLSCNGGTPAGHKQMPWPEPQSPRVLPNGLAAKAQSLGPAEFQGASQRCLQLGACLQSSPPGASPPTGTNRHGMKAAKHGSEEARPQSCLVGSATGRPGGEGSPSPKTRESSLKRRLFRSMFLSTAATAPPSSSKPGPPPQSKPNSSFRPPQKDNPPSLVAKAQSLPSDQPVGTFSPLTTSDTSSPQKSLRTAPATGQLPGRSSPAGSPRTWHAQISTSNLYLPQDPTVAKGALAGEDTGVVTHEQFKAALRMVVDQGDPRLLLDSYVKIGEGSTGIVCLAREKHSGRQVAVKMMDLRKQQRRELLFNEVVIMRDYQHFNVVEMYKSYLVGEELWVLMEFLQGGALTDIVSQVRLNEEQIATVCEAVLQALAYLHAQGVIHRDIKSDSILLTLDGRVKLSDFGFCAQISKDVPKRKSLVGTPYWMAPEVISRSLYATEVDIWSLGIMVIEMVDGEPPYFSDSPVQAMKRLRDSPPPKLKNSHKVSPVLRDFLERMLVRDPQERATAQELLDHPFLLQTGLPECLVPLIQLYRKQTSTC
# Method in brief: as §1
# TRKA = target: T28, TRKA (Homo sapiens, UniProt P04629)
# T28 construct: either as full-length or enzymatically active fragments; purchased ProQinase GmbH (Reaction Biology)
# Method in brief: as §1
# PAK4 = target: T29, PAK4 (Homo sapiens, UniProt O96013)
# T29 construct: either as full-length or enzymatically active fragments; purchased ProQinase GmbH (Reaction Biology)
# Method in brief: as §1
# p38beta = target: T30, p38beta (Homo sapiens, UniProt Q15759)
# T30 construct: either as full-length or enzymatically active fragments; purchased ProQinase GmbH (Reaction Biology); host or cells: Sf9 insect cells or E. coli (not specified per kinase)
# T30 sequence (Q15759 whole entry, the tested form may be a part): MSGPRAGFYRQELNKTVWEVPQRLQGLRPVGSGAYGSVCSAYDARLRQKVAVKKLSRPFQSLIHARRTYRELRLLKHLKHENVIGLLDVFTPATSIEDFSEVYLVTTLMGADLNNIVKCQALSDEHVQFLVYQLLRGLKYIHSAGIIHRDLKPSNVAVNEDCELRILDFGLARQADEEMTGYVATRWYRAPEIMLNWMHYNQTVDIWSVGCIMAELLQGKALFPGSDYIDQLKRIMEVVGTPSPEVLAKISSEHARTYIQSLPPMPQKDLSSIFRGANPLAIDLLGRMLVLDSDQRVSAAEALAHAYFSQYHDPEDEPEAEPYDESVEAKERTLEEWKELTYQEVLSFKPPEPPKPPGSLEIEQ
# Method in brief: as §1
# SYK = target: T31, SYK (Homo sapiens, UniProt P43405)
# T31 construct: either as full-length or enzymatically active fragments; purchased ProQinase GmbH (Reaction Biology)
# Method in brief: as §1
smiles,measurement,setting,value
"C=CC(=O)Nc1ccc(C(=O)N2CC[C@@H](Nc3ncc(C#N)cn3)C2)cc1 [Compound 4, (R)-N-(4-(3-((5-cyanopyrimidin-2-yl)amino)pyrrolidine-1-carbonyl)phenyl)acrylamide]",inhibition at 1 µM,IGF1R,-23%
same,inhibition at 1 µM,EIF2AK3,14%
same,inhibition at 1 µM,ABL1,-1%
same,inhibition at 1 µM,DCAMKL2,0%
same,inhibition at 1 µM,MYLK3,4%
same,inhibition at 1 µM,EEF2K,15%
same,inhibition at 1 µM,CDK2/CycA2,15%
same,inhibition at 1 µM,GRK5,-6%
same,inhibition at 1 µM,ERK7,17%
same,inhibition at 1 µM,WNK1,17%
same,inhibition at 1 µM,CK1delta,-7%
same,inhibition at 1 µM,PKCdelta,-2%
same,inhibition at 1 µM,FGFR1,3%
same,inhibition at 1 µM,SIK3,8%
same,inhibition at 1 µM,SRPK1,-8%
same,inhibition at 1 µM,MAP4K4,0%
same,inhibition at 1 µM,PIM1,3%
same,inhibition at 1 µM,FRK,-6%
same,inhibition at 1 µM,FGFR4,2%
same,inhibition at 1 µM,CLK2,-2%
same,inhibition at 1 µM,MST2,0%
same,inhibition at 1 µM,ACVR2A,7%
same,inhibition at 1 µM,CK1epsilon,-13%
same,inhibition at 1 µM,GSK3beta,8%
same,inhibition at 1 µM,MAP3K1,9%
same,inhibition at 1 µM,EGFR,7%
same,inhibition at 1 µM,PAK6,4%
same,inhibition at 1 µM,TRKA,-7%
same,inhibition at 1 µM,PAK4,-3%
same,inhibition at 1 µM,p38beta,8%
same,inhibition at 1 µM,SYK,2%
